Common to all, as to assay type: cell-based
For assay [1], the system named is IL-1β production in human whole blood. The assay can be described thus: Endotoxin-induced IL-1β production from human whole blood. As to conditions: LPS 100 ng/ml, 3 hours, read-out: HWB IL-1β IC50. Here is the method: (§1) Human whole blood (HWB; 25-45 ml) was collected from an NSAID-free donor into vacutainer collection tubes containing sodium heparin (10 ml, 158 USP units), pooled and rocked gently before being distributed into each well of a 96-well round bottom tissue culture plate ([…]). Compounds ([…]/well, concentration response) are added and mixed gently for 15-20 seconds using a disposable 96 polypropylene pin tool before the plates are incubated at 37° C./5% CO2 for 1 hour. The HWB is stimulated with LPS (100 ng/ml) in a final assay volume of […]. After 3 hours, the plates are spun at 240×g for 5 minutes to pellet the red cells. The plasma is carefully transferred to another 96-well round bottom plate and diluted 2-fold with assay media (DMEM containing 10% fetal bovine serum (FBS) plus antibiotics). Finally, the diluted plasma ([…]/well) is transferred to Meso Scale detection plates for determination of IL-1, IL-6 or TNFα.

For assay [2], the system named is IL-6 production in A549 cells. Description: IL-1-induced IL-6 production in A549 cells. As to conditions: Homo sapiens, 3 hours stimulation. On the procedure:
Adherent A549 cells (approximately 5 million per T75 cm^2 tissue culture flask) are grown in F-12K media containing 10% fetal bovine serum (FBS) plus antibiotics. The cells are trypsinized, washed and resuspended at 0.3 million per milliliter. A549 cells are then distributed into each well of a 96-well flat bottom tissue culture plate ([…]) and the 30,000 cells/well are allowed to recover, incubated, overnight. On the day of the assay fresh media ([…]) is added to the plates followed by the addition of compound ([…]/well, concentration response) for 1 hour. […] After 3 hours, cultured media ([…]/well) is transferred from the assay plate to a Meso Scale custom coated detection plate for determination of IL-6 levels. […] Read buffer ([…]/well, MSD 4× read buffer diluted 4-fold with dH2O) is added and the plate is read using the Meso Scale Sector Imager 6000. Upon electrical stimulation of the detection plate, co-reactants in the read buffer enhance an electrochemical reaction resulting in the release of energy in the form of light. This signal is captured by an internal CCD camera and quantitated. Viability of A549 cells is determined using an MTT assay. […] Isopropanol ([…]) is added to solubilize the resulting formazan crystals and the plate is read at 570 nm/650 nm using a Molecular Devices SpectraMax spectrophotometer.

The test system of assay [3] is IL-6 production in human whole blood. The assay can be described thus: Endotoxin-induced IL-6 production from human whole blood. As to conditions: LPS 100 ng/ml, 3 hours, read-out: HWB IL-6 IC50. On the procedure: as §1
The test system of assay [4] is TNFα production in human whole blood. Description: Endotoxin-induced TNFα production from human whole blood. As to conditions: LPS 100 ng/ml, 3 hours, read-out: HWB TNFα IC50. On the procedure: as §1
The subject of assay [5] is TNFα production in U937 cells. The assay can be described thus: LPS-induced TNFα production in differentiated U937 cells. As to conditions: Homo sapiens, U-937, LPS 0.1 μg/mL for 4 hours. On the procedure: Therefore, inhibition of the p38 MAPK pathway will lower the inflammatory response by decreasing biosynthesis of proinflammatory cytokines. […] Evaluation of the potency and efficacy of p38 inhibitors to block cytokine production is carried out using the human U937 cell line. The U937 human pre-monocytic cell line is obtained from the American Type Culture Collection (Rockville, Md.). These cells are differentiated to a monocytic/macrophage phenotype as described by Burnette (Burnette et al, (2009). SD0006: a potent, selective and orally available inhibitor of p38 kinase, Pharmacology 84(1):42-60). Differentiated U937 cells are seeded into 96-well tissue culture plates (200,000 cells/well) in complete media. After 24 hours, the cells are pretreated for 60 minutes in the presence or absence of compound and then stimulated with LPS (0.1 μg/mL) for 4 hours. Culture media are then collected for determination of TNFα, IL-6 or IL-1β levels by ELISA. Cytokine concentrations are extrapolated from recombinant protein standard curves using a four-parameter logistic model and solving for IC50 after iterating to the best least-squares fit.

Each structure is given as a SMILES string.

Turning to `Cc1cnc(-c2ccnc(C(C)(C)O)n2)cc1-n1c(C)cc(OCc2ncc(F)cc2F)c(Cl)c1=O` [Compound 49, 3-chloro-4-((3,5-difluoropyridin-2-yl)methoxy)-2′-(2-(2-hydroxypropan-2-yl)pyrimidin-4-yl)-5′,6-dimethyl-2H-[1,4′-bipyridin]-2-one], the half-inhibitory concentration (IC50) (as a rule, the midpoint of a concentration-inhibition curve) in assay [1] worked out at 6 nM; in assay [2], 1.8 nM; in assay [3], 35 nM; in assay [4], 13 nM; in assay [5] it was 1.6 nM.

Source of the values: US9115089B2, “Methyl/fluoro-pyridinyl-methoxy substituted pyridinone-pyridinyl compounds and fluoro-pyrimidinyl-methoxy substituted pyridinone-pyridinyl compounds” (CONFLUENCE LIFE SCIENCES, INC., priority 2013, dated 2015).
